According to patent US20070167492A1, “Molluscicidal agents” (priority 2003, published 2007):
“Also recorded” adds a separate entry of the source.

Key:
Format in all cases: in vivo
[1] = tested on: Grey field slug (Deroceras reticulatum); assay: Example 3:  trial oilseed rape, treated seed, 5 slugs per plot; conditions: doses of 10.4 and 20.8 ml per kg seed
Text: The compounds and doses used are described in table 12.
Trial Data Cultivaton • Location: Glasshouse • Plots consist of: One earthenware pot, diameter 20 cm, height 18 cm • Trial medium: 7 cm of peat based potting compost, covered with silversand • Cultivar: Talent (00) • Thousand seed weight: 7.0 g • Seed treatments: Carried out on 12 Mar. 2004. The fungicide treatment was 4 g a.i. TMTD per kg seed • Sowing date: 9 Apr. 2004 • Number of seeds per pot: 40 • Experimental layout: Randomised block design • Number of replicates: 4 (I to IV), Annex 1 • Temperature during cultivation: 16 hours 20° C., 8 hours 15° C. Trial • Location: Laboratory • Starting date: 20 Apr. 2004 • Slug species: Grey field slug (Deroceras reticulatum). The slugs were collected from the field and only healthy individuals were used. • Number of slugs per plot: 5 • Temperature during trial: ±18° C. • Relative humidity during trial: ±90% Assessment
After starting the trial, assessments were made on 21, 23 and 26 April. At each assessment, the total numbers of plants, the numbers of attacked plants, the numbers of dead slugs and the numbers of fecal pellets were counted. […] In addition, the numbers of normal plants were counted on 23 and 26 April and the fresh aboveground plant weight per plot was assessed on 27 April. […]
Data were analysed using analysis of variance and Student's t-distribution with the PPAIR procedure.

[2] = tested on: Deroceras reticulatum (grey field slug); assay: Example 1: pot test, treated winter wheat seed with 5 adult slugs per pot, 14 days
Procedure, shortened: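 Fludioxonil-disinfected winter wheat seed (Kampa, 40 per pot) sown on quartz sand over potting soil with 5 adult slugs per pot; ±15° C., ±90% RH, 12 h light/12 h dark, 4 replicates. Damaged seeds, plants, dead slugs and fecal pellets counted up to day 14; F-tests and Student-tests.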

[3] = tested on: Winter wheat (Kampa race) seeds; assay: Seed germination test of treated winter wheat seeds (rolled in paper); conditions: 3x50 seeds, 6 days at 22° C.
Procedure, shortened: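 Seeds were disinfected with fludioxonil-containing Beret Gold (2 ml per kg seed) and coated with Sepiret® for formulations unsuitable for coating. Germination of 3×50 seeds rolled in paper was scored after 6 days at continuous 22° C. under a 16 hours light regime.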

[4] = tested on: Deroceras reticulatum (grey field slug); assay: Example 2: pot re-test, treated winter wheat seed with 5 adult slugs per pot, 7 days; conditions: for number of damaged seeds relative to the untreated seed: two days after the start
Text: Based on the results of the experiment described in Example 1, a selection was made from the various test numbers of that experiment for re-testing, partly to confirm the conclusions of that experiment and to test the unexpected outcome of some test compounds.
The selection of test numbers (Test No.) used in the present experiment relative to those of the experiment described in Example 1 is shown in Table 7.
The same seeds as described in Example 1 were sown in earthenware pots with an internal diameter of 20 cm and a height of 18 cm, filled with 7 cm of potting soil (Trio BV, Weesp, The Netherlands) and with a top 2 cm of white quartz sand. A total of 40 winter wheat seeds was placed in each pot, in a pattern of concentric circles on top of the quartz sand, the germ of the seed facing upwards. To each pot a total of 5 adult specimens of the test slug Deroceras reticulatum (grey field slug) were added. The pots were incubated at 18-19° C. with a relative humidity of ±95% and light regime of ±18 hours light/6 hours dark, without artificial lighting. The pots were not irrigated overhead. In total, 4 parallel tests were performed for each test.
The number of damaged seeds was, the number of plants present (germinated and not eaten or damaged by the slugs), the number of dead slugs and of the number of fecal pellets were determined after 2, 3 and 7 days following the addition of the slugs.
The data were statistically analysed by using F-tests (α=0.05) and pair-wise Student-tests.

[5] = 2 ml formulated per kg seed, 2 days after sowing
[6] = 2 ml formulated per kg seed, 3 days after sowing
[7] = 2 ml formulated per kg seed, 7 days after sowing
[8] = 2 ml formulated per kg seed, 10 days after sowing
[9] = 2 ml formulated per kg seed, 14 days after sowing
[10] = 10 ml formulated per kg seed, 2 days after sowing
[11] = 10 ml formulated per kg seed, 3 days after sowing
[12] = 10 ml formulated per kg seed, 7 days after sowing
[13] = 10 ml formulated per kg seed, 10 days after sowing
[14] = 10 ml formulated per kg seed, 14 days after sowing
[15] = Example 2, 2 ml formulated per kg seed, 2 days after sowing
[16] = Example 2, 2 ml formulated per kg seed, 3 days after sowing
[17] = Example 2, 2 ml formulated per kg seed, 7 days after sowing
[18] = Example 2, after 2, 3 and 7 days
[19] = Example 2, 10 ml formulated per kg seed, 2 days after sowing
[20] = Example 2, 10 ml formulated per kg seed, 3 days after sowing
[21] = Example 2, 10 ml formulated per kg seed, 7 days after sowing

N#CN=C1SCCN1Cc1ccc(Cl)nc1 [thiacloprid, N-[3-(6-chloropyridin-3-ylmethyl)thiazolidin-2-ylidene]cyanamide]
damage (conclusion) [1]: decreases the damage | number of utilizable plants after 14 days ([2]; 2 ml formulated per kg seed): 28.8 | percentage of damaged seeds after 14 days ([2]; 2 ml formulated per kg seed): 13% | Mean number of damaged seeds per pot [2, 5]: 1.3 | Mean number of dead slugs per pot [2, 5]: 0 | Mean number fecal pellets per pot [2, 6]: 14 | Mean number of damaged seeds per pot [2, 6]: 3.3 | Mean number of dead slugs per pot [2, 6]: 0.3 | Mean number of plants present per pot [2, 6]: 6.3 | Mean number fecal pellets per pot [2, 7]: 23 | Mean number of damaged seeds per pot [2, 7]: 7.5 | Mean number of dead slugs per pot [2, 7]: 0.5 | Mean number of plants present per pot [2, 7]: 27.8 | Mean number fecal pellets per pot [2, 8]: 17 | Mean number of damaged seeds per pot [2, 8]: 5.5 | Mean number of dead slugs per pot [2, 8]: 0.5 | Mean number of plants present per pot [2, 8]: 28.5 | Mean number fecal pellets per pot [2, 9]: 21 | Mean number of damaged seeds per pot [2, 9]: 5.3 | Mean number of dead slugs per pot [2, 9]: 0.8 | Mean number of plants present per pot [2, 9]: 29.3 | number of utilizable plants after 14 days ([2]; 10 ml formulated per kg seed): 34.5 | percentage of damaged seeds after 14 days ([2]; 10 ml formulated per kg seed): 8% | Mean number of damaged seeds per pot [2, 10]: 0.5 | Mean number of dead slugs per pot [2, 10]: 0 | Mean number fecal pellets per pot [2, 11]: 5 | Mean number of damaged seeds per pot [2, 11]: 1.5 | Mean number of dead slugs per pot [2, 11]: 0 | Mean number of plants present per pot [2, 11]: 10.5 | Mean number fecal pellets per pot [2, 12]: 8 | Mean number of damaged seeds per pot [2, 12]: 3.3 | Mean number of dead slugs per pot [2, 12]: 0 | Mean number of plants present per pot [2, 12]: 32.8 | Mean number fecal pellets per pot [2, 13]: 7 | Mean number of damaged seeds per pot [2, 13]: 3.3 | Mean number of dead slugs per pot [2, 13]: 0.3 | Mean number of plants present per pot [2, 13]: 34.0 | Mean number fecal pellets per pot [2, 14]: 9 | Mean number of damaged seeds per pot [2, 14]: 3.3 | Mean number of dead slugs per pot [2, 14]: 0.3 | Mean number of plants present per pot [2, 14]: 34.8 | damaged seeds relative to untreated control seed ([2]; Example 1, 2 or 10 ml per kg of seed, at each observation (after 2 days only 10 ml)): less damaged seeds than the untreated control seed | protection of the wheat against slugs (conclusion) ([2]; Example 1, already at a low dose of 2 ml): good protection of the wheat against slugs | fecal pellets relative to the untreated seed ([2]; Example 1, at each dosage and at each observation): large and significant reduction in the number of fecal pellets; also recorded: significantly less fecal pellets | plants present and utilizable plants relative to the untreated seed ([2]; Example 1, both 2 and 10 ml per kg of seed, after 7 days): significantly more plants present and utilizable plants | comparison with imidacloprid (fecal pellets, damaged seeds, plants present, utilizable plants) ([2]; Example 1, two weeks after the start): scored surprisingly better than the related compound imidacloprid | Percentage germinated ([3]; 2 ml formulated per kg seed): 73% | Percentage germinated ([3]; 10 ml formulated per kg seed): 58% | result of seed treatment against slugs (conclusion) ([4]; Example 2): good results | percentage of damaged seeds after 7 days ([4]; Example 2, 2 ml formulated per kg seed): 14% | Mean number of damaged seeds per pot [4, 15]: 3.5 | Mean number of dead slugs per pot [4, 15]: 0 | Mean number of damaged seeds per pot [4, 16]: 4.5 | Mean number of dead slugs per pot [4, 16]: 0 | Mean number of damaged seeds per pot [4, 17]: 5.8 | Mean number of dead slugs per pot [4, 17]: 0.3 | number of fecal pellets per pot relative to the untreated control [4, 18]: significant reduction in the number of fecal pellets | plants present relative to the untreated seed [4, 18]: significantly more plants present | number of damaged seeds relative to the untreated seed ([4]; Example 2): significant reduction in the number of damaged seeds | Mean number of fecal pellets per pot ([4]; dosage 2 ml, 2 days): 8 | Mean number of plants present per pot ([4]; dosage 2 ml, 2 days): 12.5 | Mean number of fecal pellets per pot ([4]; dosage 2 ml, 3 days): 14 | Mean number of plants present per pot ([4]; dosage 2 ml, 3 days): 24.0 | Mean number of fecal pellets per pot ([4]; dosage 2 ml, 7 days): 17 | Mean number of plants present per pot ([4]; dosage 2 ml, 7 days): 29.5 | number of utilizable plants after 7 days ([4]; dosage 2 ml, 7 days): 23.5

abamectine
number of utilizable plants after 14 days ([2]; 2 ml formulated per kg seed): 0.8 | percentage of damaged seeds after 14 days ([2]; 2 ml formulated per kg seed): 93% | Mean number of damaged seeds per pot [2, 5]: 3.8 | Mean number of dead slugs per pot [2, 5]: 0 | Mean number fecal pellets per pot [2, 6]: 43 | Mean number of damaged seeds per pot [2, 6]: 14.3 | Mean number of dead slugs per pot [2, 6]: 0 | Mean number of plants present per pot [2, 6]: 6.3 | Mean number fecal pellets per pot [2, 7]: 119 | Mean number of damaged seeds per pot [2, 7]: 35.8 | Mean number of dead slugs per pot [2, 7]: 0 | Mean number of plants present per pot [2, 7]: 0 | Mean number fecal pellets per pot [2, 8]: 133 | Mean number of damaged seeds per pot [2, 8]: 35.5 | Mean number of dead slugs per pot [2, 8]: 0.3 | Mean number of plants present per pot [2, 8]: 0.8 | Mean number fecal pellets per pot [2, 9]: 140 | Mean number of damaged seeds per pot [2, 9]: 37.0 | Mean number of dead slugs per pot [2, 9]: 0.3 | Mean number of plants present per pot [2, 9]: 0.8 | number of utilizable plants after 14 days ([2]; 10 ml formulated per kg seed): 9.0 | percentage of damaged seeds after 14 days ([2]; 10 ml formulated per kg seed): 61% | Mean number of damaged seeds per pot [2, 10]: 1.5 | Mean number of dead slugs per pot [2, 10]: 0.3 | Mean number fecal pellets per pot [2, 11]: 15 | Mean number of damaged seeds per pot [2, 11]: 3.3 | Mean number of dead slugs per pot [2, 11]: 0.5 | Mean number of plants present per pot [2, 11]: 3.8 | Mean number fecal pellets per pot [2, 12]: 89 | Mean number of damaged seeds per pot [2, 12]: 21.0 | Mean number of dead slugs per pot [2, 12]: 1.3 | Mean number of plants present per pot [2, 12]: 6.0 | Mean number fecal pellets per pot [2, 13]: 106 | Mean number of damaged seeds per pot [2, 13]: 23.8 | Mean number of dead slugs per pot [2, 13]: 1.3 | Mean number of plants present per pot [2, 13]: 8.8 | Mean number fecal pellets per pot [2, 14]: 114 | Mean number of damaged seeds per pot [2, 14]: 24.3 | Mean number of dead slugs per pot [2, 14]: 1.5 | Mean number of plants present per pot [2, 14]: 9.0 | damaged seeds relative to the untreated control ([2]; Example 1, 10 ml/kg, after 3, 7 and 14 days): significantly less damaged seeds | protection / slug controlling effect (conclusion) ([2]; Example 1, winter wheat seed treatment, dosages tested): no sufficient protection to the plants | Percentage germinated ([3]; 2 ml formulated per kg seed): 47% | Percentage germinated ([3]; 10 ml formulated per kg seed): 2% | number of plants present relative to untreated ([4]; Example 2): no significantly different results | phytotoxic effect on the seeds ([4]; Example 2): phytotoxic effect on the seeds | result of seed treatment against slugs (conclusion) ([4]; Example 2): does not give the desired effect | percentage of damaged seeds after 7 days ([4]; Example 2, 10 ml formulated per kg seed): 31% | Mean number of damaged seeds per pot [4, 19]: 2.8 | Mean number of dead slugs per pot [4, 19]: 0 | Mean number of damaged seeds per pot [4, 20]: 6.0 | Mean number of dead slugs per pot [4, 20]: 0.3 | Mean number of damaged seeds per pot [4, 21]: 12.5 | Mean number of dead slugs per pot [4, 21]: 0.8 | number of damaged seeds relative to the untreated seed ([4]; Example 2): significant reduction in the number of damaged seeds | Mean number of fecal pellets per pot ([4]; dosage 10 ml, 2 days): 11 | Mean number of plants present per pot ([4]; dosage 10 ml, 2 days): 0.3 | Mean number of fecal pellets per pot ([4]; dosage 10 ml, 3 days): 30 | Mean number of plants present per pot ([4]; dosage 10 ml, 3 days): 1.3 | Mean number of fecal pellets per pot ([4]; dosage 10 ml, 7 days): 69 | Mean number of plants present per pot ([4]; dosage 10 ml, 7 days): 4.5 | number of utilizable plants after 7 days ([4]; dosage 10 ml, 7 days): 2.0
